Assay: xn = mol fraction of the nth substance listed
Conditions: 100 kPa, Liquid; for viscosity: Concentric cylinders viscometry; for mass density: Vibrating tube method

COCOCOCOC [2,4,6,8-tetraoxanonane] + COCOCOC
Conditions	mass density [kg/m3]	viscosity [mPa·s]
288.15 K, x2 = 0	1037.5	1.259
288.15 K, x2 = 0.06	1034.7	1.278
288.15 K, x2 = 0.12	1031.3	1.281
288.15 K, x2 = 0.18	1029.5	1.273
288.15 K, x2 = 0.24	1027.1	1.261
288.15 K, x2 = 0.35	1024.2	1.228
288.15 K, x2 = 0.45	1021.1	1.185
288.15 K, x2 = 0.55	1018.1	1.142
288.15 K, x2 = 0.65	1014.3	1.096
288.15 K, x2 = 0.74	1010.1	1.051
288.15 K, x2 = 0.83	1006.2	1.001
288.15 K, x2 = 0.92	1002.3	0.9612
293.15 K, x2 = 0	1030.2	1.166
293.15 K, x2 = 0.06	1028.4	1.174
293.15 K, x2 = 0.12	1025.9	1.177
293.15 K, x2 = 0.18	1024.5	1.17
293.15 K, x2 = 0.24	1022.7	1.159
293.15 K, x2 = 0.35	1019.5	1.128
293.15 K, x2 = 0.45	1016.1	1.093
293.15 K, x2 = 0.55	1012.8	1.058
293.15 K, x2 = 0.65	1009.1	1.021
293.15 K, x2 = 0.74	1005.3	0.9894
293.15 K, x2 = 0.83	1001.7	0.9628
293.15 K, x2 = 0.92	998.2	0.9384
298.15 K, x2 = 0	1023.4	1.084
298.15 K, x2 = 0.06	1022.3	1.093
298.15 K, x2 = 0.12	1021.2	1.098
298.15 K, x2 = 0.18	1019.5	1.093
298.15 K, x2 = 0.24	1018.1	1.084
298.15 K, x2 = 0.35	1014.5	1.059
298.15 K, x2 = 0.45	1011.2	1.032
298.15 K, x2 = 0.55	1007.8	1.002
298.15 K, x2 = 0.65	1004.1	0.9754
298.15 K, x2 = 0.74	1000.5	0.9543
298.15 K, x2 = 0.83	996.4	0.9353
298.15 K, x2 = 0.92	993	0.9189
303.15 K, x2 = 0	1016.6	1.028
303.15 K, x2 = 0.06	1016.4	1.038
303.15 K, x2 = 0.12	1015.9	1.042
303.15 K, x2 = 0.18	1014.5	1.037
303.15 K, x2 = 0.24	1013.1	1.031
303.15 K, x2 = 0.35	1009.9	1.01
303.15 K, x2 = 0.45	1006.5	0.9913
303.15 K, x2 = 0.55	1003.2	0.9667
303.15 K, x2 = 0.65	999.3	0.9452
303.15 K, x2 = 0.74	995.5	0.9283
303.15 K, x2 = 0.83	991.3	0.9135
303.15 K, x2 = 0.92	987.6	0.9007
308.15 K, x2 = 0	1011	0.9921
308.15 K, x2 = 0.06	1011.01	0.9966
308.15 K, x2 = 0.12	1010.7	0.9977
308.15 K, x2 = 0.18	1010.32	0.9959
308.15 K, x2 = 0.24	1008.6	0.9894
308.15 K, x2 = 0.35	1005.6	0.9741
308.15 K, x2 = 0.45	1002.1	0.9577
308.15 K, x2 = 0.55	998.9	0.938
308.15 K, x2 = 0.65	995	0.9204
308.15 K, x2 = 0.74	990.8	0.9067
308.15 K, x2 = 0.83	986.8	0.8938
308.15 K, x2 = 0.92	982.8	0.8828
313.15 K, x2 = 0	1005	0.9521
313.15 K, x2 = 0.06	1006.5	0.9668
313.15 K, x2 = 0.12	1007	0.9724
313.15 K, x2 = 0.18	1006.3	0.9671
313.15 K, x2 = 0.24	1005.5	0.9597
313.15 K, x2 = 0.35	1002.4	0.9453
313.15 K, x2 = 0.45	998.3	0.9308
313.15 K, x2 = 0.55	994.9	0.916
313.15 K, x2 = 0.65	990.8	0.9008
313.15 K, x2 = 0.74	987	0.8876
313.15 K, x2 = 0.83	983	0.8758
313.15 K, x2 = 0.92	979	0.8652
